The target in assay [1] is T1, ADAMTS4 in the aortic wall of ApoE−/− mice (Mus musculus, UniProt Q8BNJ2).
T1 construct: from tissue
T1 sequence (Q8BNJ2 209-833): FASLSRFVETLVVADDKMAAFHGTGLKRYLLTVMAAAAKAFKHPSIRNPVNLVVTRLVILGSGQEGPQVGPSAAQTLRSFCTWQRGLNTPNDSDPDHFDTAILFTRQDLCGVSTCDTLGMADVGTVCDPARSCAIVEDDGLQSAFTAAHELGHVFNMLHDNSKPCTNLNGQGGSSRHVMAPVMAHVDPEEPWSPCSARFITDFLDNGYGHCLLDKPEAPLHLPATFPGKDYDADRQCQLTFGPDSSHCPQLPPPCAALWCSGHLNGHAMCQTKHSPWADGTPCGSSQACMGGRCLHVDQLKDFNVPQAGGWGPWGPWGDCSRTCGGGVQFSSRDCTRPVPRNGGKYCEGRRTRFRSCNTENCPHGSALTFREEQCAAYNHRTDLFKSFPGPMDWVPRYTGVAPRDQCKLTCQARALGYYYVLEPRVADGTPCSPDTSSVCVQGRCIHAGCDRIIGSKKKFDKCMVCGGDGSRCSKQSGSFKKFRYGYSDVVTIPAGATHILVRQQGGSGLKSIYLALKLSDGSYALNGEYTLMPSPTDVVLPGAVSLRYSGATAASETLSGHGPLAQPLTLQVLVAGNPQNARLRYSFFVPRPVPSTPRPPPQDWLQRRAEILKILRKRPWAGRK
Briefly: LA-ICP-MS spatial localization of Gd in the aortic wall. It is filed as in vivo. To be noted: 10 µm cryosections, n = 3 per time point. As to the method:
Aortic tissues were cut into 10 µm cryosections at −20 °C and mounted on SuperFrost Plus adhesion slides (Thermo Scientific, Waltham, MA, USA). Laser ablation inductively coupled plasma mass spectrometry (LA-ICP-MS) analysis was performed on a commercial LA system (NWR-213, ESI, Bozeman, MT, USA) equipped with a two-volume sample chamber coupled to a sector field ICP-MS (Element XR, Thermo Fisher Scientific, Bremen, Germany) (Supplementary Table 6).
Helium was used as the carrier gas, and argon was added before reaching the torch using a Y-piece (Supplementary Table 7). The ICP-MS was tuned for maximum ion intensity and good signal stability (RSD < 5%), keeping the oxide ratio (ThO/Th) below 1% during the continuous ablation of a microscopic glass slide. Matrix-matched agarose gel standards cast on glass slides were used for drift control and calibration. These standards contain Gd concentrations between 26.6 pg mm^−2 and 600.1 pg mm^−2. Averaged intensities of six line-scans per standard were used for calibration. Data visualization was done in Origin 2022 (OriginLab Corporation, Northampton, MA).

Assay [2] addresses T1, ADAMTS4 in the aortic wall of ApoE−/− mice. Briefly: In vivo MRI with negative control probe and ADAMTS4-specific probe. The conditions noted are these: for CNR post administration, individual animals: d1 = negative control probe, d2 = ADAMTS4-specific probe, 0.13 mmol/kg. The method, then:
In vivo MR imaging was performed in 6 ApoE^−/− mice (n = 6): three mice (n = 3) received AngII through the osmotic minipumps, three mice (n = 3) received saline, serving as the control group. MR imaging was performed 4 weeks after minipump implantation. On day 1, a native MR scan was followed by the intravenous injection of the negative control peptide (0.13 mmol/kg) and a subsequent MR scan. 24 h later, mice were imaged prior to and following the intravenous administration of the ADAMTS4-specific probe (0.13 mmol/kg).
Analysis of resulting MR images was performed using OsiriX (version 7.1, OsiriX Foundation, Bernex, Switzerland). All morphometric measurements were conducted on high-resolution MRI images. In order to assess the signal intensities, regions of interest (ROIs) were measured as areas of signal enhancement, which were co-localized with areas of aneurysmal-aortic tissue. For these areas, the CNR was calculated using the following formula: CNR = (Combined vessel-wall and aneurysmal-aortic-tissue-signal − blood-signal)/standard-deviation-signal (noise). The signal of noise was defined as the standard deviation in pixel intensity from an ROI placed in the background air anterior to the aorta.

The source of these data is PMC9126943, “ADAMTS4-specific MR probe to assess aortic aneurysms in vivo using synthetic peptide libraries” (Nature Communications, 2022).

“And” between values parts separate entries of the source, which are not always exact repeats. Equal values may be shown once. Where a SMILES comes first, the peptide text is derived from it. Bridges are numbered along the chain shown (N, C = ends). The star is where a group is joined. DOTA = O=C(O)CN1CCN(CC(=O)O)CCN(CC(=O)*)CCN(CC(=O)O)CC1

With `N=C(N)NCCC[C@@H]1NC(=O)[C@H](CCCNC(=N)N)NC(=O)[C@H](CO)NC(=O)[C@@H](N)CSSC[C@@H](C(=O)N[C@@H](CO)C(=O)NCC(=O)NCC(=O)N[C@@H](CO)C(=O)NCC(=O)NCC(=O)N[C@@H](CCCCNC(=O)CN2CCN(CC(=O)O)CCN(CC(=O)O)CCN(CC(=O)O)CC2)C(=O)NCC(N)=O)NC(=O)CNC1=O` (Gd complex, metal not drawn) [ADAMTS4-specific probe] (H-CSRRGCSGGSGGK(DOTA)G-NH2; disulfide 1-6), the “colocalization of gadolinium with areas positive for ADAMTS4” value in assay [1] is reported as “strong colocalization”. The “increase in MR signal / CNR in the aortic wall, in words” value in assay [2] (0.13 mmol/kg i.v., 4 weeks after minipump implantation, n = 6) was “strong and significant increase”. The “CNR post administration, individual animals” value in assay [2] (AAA (AngII) mice) is 10.87 and 12.24 and 11.33; in assay [2] (control (c, saline) mice), 6.48 and 5.75 and 6.1.
